Series [1] deals with T1, CDK2/Cyclin A (Homo sapiens, UniProt P24941).
T1 construct: made in house; host or cells: CDK2: insect cells (baculovirus); cyclin A: E. coli
In words: Inhibition of CDK2/Cyclin A retinoblastoma kinase activity (apparent Ki). Conditions: read-out: CDK2 Ki. Type of series: biochemical. Put shortly:
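Cyclin A complex (proteolyzed cyclin) purified by gel filtration; enzyme-initiated reactions ran 20 min at 30 °C, transferring radiolabelled phosphate from [32P]/[33P]ATP onto a protein substrate, stopped with EDTA and quantified by phosphorimager.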

Series [2] in a line: Measurement of kinetic solubility. As to conditions: 100 mM sodium phosphate buffer, pH 6.5, aqueous buffer, kinetic from dmso stock. On the procedure: Kinetic solubility was determined with a […] stock solution from the compound(s) of interest. […] Samples and standards were then centrifuged and an aliquot was removed for HPLC analysis. Samples and standards were analyzed by HPLC and a final concentration for the sample was determined based on a one-point calibration curve from the corresponding standard. Results were reported as μg's/mL.

Broadly, the solubility is the concentration that dissolves in the medium under given conditions. Read a high solubility as a readily soluble substance.

≈ marks a conversion by molar mass, not a printed value.

In the case of `CCNCc1cncc(-c2ccc3[nH]nc(-c4nc(-c5ccc(Cl)cc5)c(C)[nH]4)c3c2)c1C` [Example 25, (5-{3-[4-(4-Chloro-phenyl)-5-methyl-1H-imidazol-2-yl]-1H-indazol-5-yl}-4-methyl-pyridin-3-ylmethyl)-ethyl-amine], the Ki in series [1] is below 50 nM. For the same molecule, the solubility in series [2] fell in the range of 20 to 120 µg/mL (≈ 43.8 to 263 µM).

As for `CCNCc1cncc(-c2ccc3[nH]nc(-c4ncc(C(=O)N5CCC6CCCCC6C5)[nH]4)c3c2)c1C` (stereo not drawn) [Example 71, N-[(4-methyl-5-{3-[5-(octahydroisoquinolin-2(1H)-ylcarbonyl)-1H-imidazol-2-yl]-1H-indazol-5-yl}pyridin-3-yl)methyl]ethanamine], the Ki in series [1] was below 50 nM. This molecule also showed a solubility in series [2] of 20 to 120 µg/mL (≈ 40.2 to 241 µM).

For `CCNCc1cncc(-c2ccc3[nH]nc(-c4ncc(C(=O)NCCN(C)C)[nH]4)c3c2)c1C` [Example 54, N-[2-(dimethylamino)ethyl]-2-(5-{5-[(ethylamino)methyl]-4-methylpyridin-3-yl}-1H-indazol-3-yl)-1H-imidazole-5-carboxamide], the Ki in series [1] is below 50 nM. This molecule registered a solubility in series [2] above 120 µg/mL.

On to `COCc1cncc(-c2ccc3[nH]nc(-c4nc5c([nH]4)CCCC5)c3c2)c1C` [Example 41, 5-(5-Methoxymethyl-4-methyl-pyridin-3-yl)-3-(4,5,6,7-tetrahydro-1H-benzoimidazol-2-yl)-1H-indazole], for which, in series [1], the Ki was below 50 nM. In series [2], the solubility was above 120 µg/mL.

On to `CCNCc1cncc(-c2ccc3[nH]nc(-c4nc(-c5ccc(F)cc5)c[nH]4)c3c2)c1C` [Example 31, Ethyl-(5-{3-[4-(4-fluoro-phenyl)-1H-imidazol-2-yl]-1H-indazol-5-yl}-4-methyl-pyridin-3-ylmethyl)-amine], for which the Ki in series [1] is below 50 nM. For the same molecule, in series [2], the solubility lay within 20 to 120 µg/mL (≈ 46.9 to 281 µM).

For the molecule `CCNCc1cncc(-c2ccc3[nH]nc(-c4nc(-c5ccccc5)c(C(=O)N5CCCC5)[nH]4)c3c2)c1C` [Example 4, {2-[5-(5-Ethylaminomethyl-4-methyl-pyridin-3-yl)-1H-indazol-3-yl]-5-phenyl-3H-imidazol-4-yl}-pyrrolidin-1-yl-methanone], the Ki in series [1] was 50 to 200 nM. In series [2], this molecule displayed a solubility of 20 to 120 µg/mL (≈ 39.6 to 237 µM).
